The values that follow come from the supplement of paper PMC12076712.

Among the targets are ROCK2 (UniProt O75116); UniProt Q05655; PRKACB (UniProt P22694); EIF2AK4 (UniProt Q9P2K8); JAK1 (UniProt P23458); ARAF (UniProt P10398); UniProt P49841; IRAK1 (UniProt P51617); UniProt Q14004.
Test in all cases: pIC50, kinobeads binding competition
Details in all cases: cell material: Jurkat lysate

For the next test, the target named is T1, EPHA3 (UniProt P29320).
T1 sequence (whole entry): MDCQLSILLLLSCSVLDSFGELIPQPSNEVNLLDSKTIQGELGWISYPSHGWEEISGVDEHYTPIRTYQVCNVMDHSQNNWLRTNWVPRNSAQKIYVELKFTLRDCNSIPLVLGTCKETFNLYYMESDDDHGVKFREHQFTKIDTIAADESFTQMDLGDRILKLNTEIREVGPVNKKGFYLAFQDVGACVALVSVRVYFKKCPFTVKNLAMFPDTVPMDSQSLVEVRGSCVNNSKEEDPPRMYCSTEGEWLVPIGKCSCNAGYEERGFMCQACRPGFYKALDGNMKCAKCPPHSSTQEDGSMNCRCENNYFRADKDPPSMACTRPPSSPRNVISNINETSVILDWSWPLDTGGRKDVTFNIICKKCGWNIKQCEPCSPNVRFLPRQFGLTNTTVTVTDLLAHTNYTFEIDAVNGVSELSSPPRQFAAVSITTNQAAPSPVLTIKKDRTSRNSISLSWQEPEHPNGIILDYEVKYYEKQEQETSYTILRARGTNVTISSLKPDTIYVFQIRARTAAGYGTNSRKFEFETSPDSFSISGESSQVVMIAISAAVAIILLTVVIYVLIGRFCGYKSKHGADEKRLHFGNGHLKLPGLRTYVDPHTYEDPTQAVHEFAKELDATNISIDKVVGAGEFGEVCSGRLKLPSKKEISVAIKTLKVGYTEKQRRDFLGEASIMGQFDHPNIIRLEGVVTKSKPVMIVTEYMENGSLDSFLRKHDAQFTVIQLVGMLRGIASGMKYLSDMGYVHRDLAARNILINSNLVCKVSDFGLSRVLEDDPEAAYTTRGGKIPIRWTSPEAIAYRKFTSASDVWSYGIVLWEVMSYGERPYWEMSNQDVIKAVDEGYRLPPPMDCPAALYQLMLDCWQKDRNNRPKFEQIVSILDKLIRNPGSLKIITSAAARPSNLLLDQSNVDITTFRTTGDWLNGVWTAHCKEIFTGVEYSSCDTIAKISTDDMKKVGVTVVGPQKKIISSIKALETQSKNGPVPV

For the next test, the target named is T2, UniProt Q13163.
T2 sequence (whole entry): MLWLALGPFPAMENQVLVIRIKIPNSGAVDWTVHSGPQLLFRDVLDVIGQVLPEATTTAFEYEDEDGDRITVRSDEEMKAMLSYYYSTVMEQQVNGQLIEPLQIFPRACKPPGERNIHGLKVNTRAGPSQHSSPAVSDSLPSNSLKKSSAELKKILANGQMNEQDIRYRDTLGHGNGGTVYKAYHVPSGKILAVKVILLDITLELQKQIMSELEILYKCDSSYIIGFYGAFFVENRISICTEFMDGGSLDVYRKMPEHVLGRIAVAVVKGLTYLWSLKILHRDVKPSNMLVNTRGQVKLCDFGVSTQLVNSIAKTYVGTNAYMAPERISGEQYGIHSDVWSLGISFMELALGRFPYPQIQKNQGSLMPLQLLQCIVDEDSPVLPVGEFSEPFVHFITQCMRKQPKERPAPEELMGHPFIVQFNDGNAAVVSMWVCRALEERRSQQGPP

A further test has as its target T3, PRKD2 (UniProt Q9BZL6).
T3 sequence (whole entry): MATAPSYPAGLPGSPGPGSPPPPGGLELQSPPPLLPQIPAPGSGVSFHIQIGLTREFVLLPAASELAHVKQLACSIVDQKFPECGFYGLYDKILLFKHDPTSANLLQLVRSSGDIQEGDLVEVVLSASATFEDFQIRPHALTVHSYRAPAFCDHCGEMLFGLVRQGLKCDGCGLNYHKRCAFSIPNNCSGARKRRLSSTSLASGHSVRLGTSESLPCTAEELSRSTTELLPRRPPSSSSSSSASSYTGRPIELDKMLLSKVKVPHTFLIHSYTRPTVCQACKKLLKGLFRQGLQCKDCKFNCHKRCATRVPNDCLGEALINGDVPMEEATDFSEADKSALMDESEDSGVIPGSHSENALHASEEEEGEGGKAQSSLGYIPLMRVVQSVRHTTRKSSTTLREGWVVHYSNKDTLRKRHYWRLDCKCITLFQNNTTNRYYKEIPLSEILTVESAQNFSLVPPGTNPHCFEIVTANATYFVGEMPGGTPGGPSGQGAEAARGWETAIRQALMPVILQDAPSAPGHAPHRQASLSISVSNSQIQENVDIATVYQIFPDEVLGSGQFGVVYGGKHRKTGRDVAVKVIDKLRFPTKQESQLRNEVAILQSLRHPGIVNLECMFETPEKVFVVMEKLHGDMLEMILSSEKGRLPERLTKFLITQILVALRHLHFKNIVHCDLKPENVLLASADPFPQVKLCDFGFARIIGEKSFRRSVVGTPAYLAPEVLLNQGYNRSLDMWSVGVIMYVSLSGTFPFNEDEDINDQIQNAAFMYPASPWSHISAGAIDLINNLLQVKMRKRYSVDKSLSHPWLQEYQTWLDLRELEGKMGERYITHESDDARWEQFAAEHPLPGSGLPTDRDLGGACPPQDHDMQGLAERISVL

± gives the standard deviation of the averaged measurements.

UniProt Q05655, sequence (Q05655 whole entry, looked up): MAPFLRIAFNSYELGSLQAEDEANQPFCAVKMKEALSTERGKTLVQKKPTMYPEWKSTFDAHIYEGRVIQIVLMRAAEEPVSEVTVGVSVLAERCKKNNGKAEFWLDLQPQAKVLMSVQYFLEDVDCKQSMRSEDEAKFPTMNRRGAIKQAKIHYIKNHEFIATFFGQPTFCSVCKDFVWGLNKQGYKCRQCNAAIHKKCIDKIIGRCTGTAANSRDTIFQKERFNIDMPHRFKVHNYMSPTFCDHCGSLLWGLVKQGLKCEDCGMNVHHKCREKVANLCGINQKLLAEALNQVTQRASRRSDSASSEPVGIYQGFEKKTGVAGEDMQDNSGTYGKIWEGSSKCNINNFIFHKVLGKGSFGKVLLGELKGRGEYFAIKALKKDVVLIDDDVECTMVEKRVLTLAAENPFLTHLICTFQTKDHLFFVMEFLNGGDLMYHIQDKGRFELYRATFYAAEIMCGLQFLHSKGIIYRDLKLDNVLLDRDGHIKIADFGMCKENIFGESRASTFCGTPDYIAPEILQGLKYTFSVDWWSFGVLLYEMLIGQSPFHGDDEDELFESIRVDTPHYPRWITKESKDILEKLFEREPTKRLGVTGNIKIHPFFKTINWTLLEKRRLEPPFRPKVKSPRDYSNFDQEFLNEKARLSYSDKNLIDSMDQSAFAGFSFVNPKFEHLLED
EIF2AK4, sequence (Q9P2K8 whole entry): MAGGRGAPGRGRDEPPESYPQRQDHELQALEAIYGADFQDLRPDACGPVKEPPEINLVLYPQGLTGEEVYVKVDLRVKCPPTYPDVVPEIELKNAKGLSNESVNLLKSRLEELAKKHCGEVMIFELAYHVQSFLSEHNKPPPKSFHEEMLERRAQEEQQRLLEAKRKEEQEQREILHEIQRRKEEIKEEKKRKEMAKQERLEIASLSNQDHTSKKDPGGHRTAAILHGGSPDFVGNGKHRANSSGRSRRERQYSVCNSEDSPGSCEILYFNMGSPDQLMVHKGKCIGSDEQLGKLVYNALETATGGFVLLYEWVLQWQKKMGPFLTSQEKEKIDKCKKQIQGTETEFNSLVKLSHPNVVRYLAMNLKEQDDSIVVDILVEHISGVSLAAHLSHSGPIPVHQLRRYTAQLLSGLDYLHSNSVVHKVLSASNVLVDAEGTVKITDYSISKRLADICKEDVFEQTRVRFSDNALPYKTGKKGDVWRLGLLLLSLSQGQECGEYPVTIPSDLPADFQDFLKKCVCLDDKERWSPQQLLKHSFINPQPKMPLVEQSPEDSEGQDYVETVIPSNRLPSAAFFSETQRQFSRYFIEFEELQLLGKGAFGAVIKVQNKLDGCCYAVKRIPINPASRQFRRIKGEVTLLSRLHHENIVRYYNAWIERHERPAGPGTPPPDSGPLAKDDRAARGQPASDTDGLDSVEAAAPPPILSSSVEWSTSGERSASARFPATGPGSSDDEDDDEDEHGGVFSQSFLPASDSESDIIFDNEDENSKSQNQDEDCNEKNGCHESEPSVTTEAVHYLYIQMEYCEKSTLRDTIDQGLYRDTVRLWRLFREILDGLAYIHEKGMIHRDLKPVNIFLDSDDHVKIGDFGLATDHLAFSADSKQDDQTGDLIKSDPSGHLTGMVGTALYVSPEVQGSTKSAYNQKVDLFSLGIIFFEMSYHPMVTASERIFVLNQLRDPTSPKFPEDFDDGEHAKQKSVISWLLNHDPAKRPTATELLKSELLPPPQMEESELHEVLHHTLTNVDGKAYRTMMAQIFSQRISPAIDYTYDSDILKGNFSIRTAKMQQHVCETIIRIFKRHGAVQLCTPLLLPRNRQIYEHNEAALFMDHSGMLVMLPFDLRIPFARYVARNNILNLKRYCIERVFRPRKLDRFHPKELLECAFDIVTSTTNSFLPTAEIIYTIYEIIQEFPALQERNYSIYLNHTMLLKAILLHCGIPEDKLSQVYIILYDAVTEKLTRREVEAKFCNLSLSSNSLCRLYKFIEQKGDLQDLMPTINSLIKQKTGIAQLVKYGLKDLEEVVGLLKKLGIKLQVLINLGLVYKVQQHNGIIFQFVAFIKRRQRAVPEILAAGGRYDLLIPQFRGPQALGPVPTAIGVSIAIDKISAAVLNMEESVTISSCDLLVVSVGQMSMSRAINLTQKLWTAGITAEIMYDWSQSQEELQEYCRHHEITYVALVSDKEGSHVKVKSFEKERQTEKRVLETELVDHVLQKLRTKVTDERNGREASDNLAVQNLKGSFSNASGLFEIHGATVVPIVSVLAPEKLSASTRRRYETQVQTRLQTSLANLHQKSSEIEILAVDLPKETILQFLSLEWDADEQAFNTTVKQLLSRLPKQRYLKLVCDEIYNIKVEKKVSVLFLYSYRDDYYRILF
UniProt Q14004, sequence (Q14004 whole entry, looked up): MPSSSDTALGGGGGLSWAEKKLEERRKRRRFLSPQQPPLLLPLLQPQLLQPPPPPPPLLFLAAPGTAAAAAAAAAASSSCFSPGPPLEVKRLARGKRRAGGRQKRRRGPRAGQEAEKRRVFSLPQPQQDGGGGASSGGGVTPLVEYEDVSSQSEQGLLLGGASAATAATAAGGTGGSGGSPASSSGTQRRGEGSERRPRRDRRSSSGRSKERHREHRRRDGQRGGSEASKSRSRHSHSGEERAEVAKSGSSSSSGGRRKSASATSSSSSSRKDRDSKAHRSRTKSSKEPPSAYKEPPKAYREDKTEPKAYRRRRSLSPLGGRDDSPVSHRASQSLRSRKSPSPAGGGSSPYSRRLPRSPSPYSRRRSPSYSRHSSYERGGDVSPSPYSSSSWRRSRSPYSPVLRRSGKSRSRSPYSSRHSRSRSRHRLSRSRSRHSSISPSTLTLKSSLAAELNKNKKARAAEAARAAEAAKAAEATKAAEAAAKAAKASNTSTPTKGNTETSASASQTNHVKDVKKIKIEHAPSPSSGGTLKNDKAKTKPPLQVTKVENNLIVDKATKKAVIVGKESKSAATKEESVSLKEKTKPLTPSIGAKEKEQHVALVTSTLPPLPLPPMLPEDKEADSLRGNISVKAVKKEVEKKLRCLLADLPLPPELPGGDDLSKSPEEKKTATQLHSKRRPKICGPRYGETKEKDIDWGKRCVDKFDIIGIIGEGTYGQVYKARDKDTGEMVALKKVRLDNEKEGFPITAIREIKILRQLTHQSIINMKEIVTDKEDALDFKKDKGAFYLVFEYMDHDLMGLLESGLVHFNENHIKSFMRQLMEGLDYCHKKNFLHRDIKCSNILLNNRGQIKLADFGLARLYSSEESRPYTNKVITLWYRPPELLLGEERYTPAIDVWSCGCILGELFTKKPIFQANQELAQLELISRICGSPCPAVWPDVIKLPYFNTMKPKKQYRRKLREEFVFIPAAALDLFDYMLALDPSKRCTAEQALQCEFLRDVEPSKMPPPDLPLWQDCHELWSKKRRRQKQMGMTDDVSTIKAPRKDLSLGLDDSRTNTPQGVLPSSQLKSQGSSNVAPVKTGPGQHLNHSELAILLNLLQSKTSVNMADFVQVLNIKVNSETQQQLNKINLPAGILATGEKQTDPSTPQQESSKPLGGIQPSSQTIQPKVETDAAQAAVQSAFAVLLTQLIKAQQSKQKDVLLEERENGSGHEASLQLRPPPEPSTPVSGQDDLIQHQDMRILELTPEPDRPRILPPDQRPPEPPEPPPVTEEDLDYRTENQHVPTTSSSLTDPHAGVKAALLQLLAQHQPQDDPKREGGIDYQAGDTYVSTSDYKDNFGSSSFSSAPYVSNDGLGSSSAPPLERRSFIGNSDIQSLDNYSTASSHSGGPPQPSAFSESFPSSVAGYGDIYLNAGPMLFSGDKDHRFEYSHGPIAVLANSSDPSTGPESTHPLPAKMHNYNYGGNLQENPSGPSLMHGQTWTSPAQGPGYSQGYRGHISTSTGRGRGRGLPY
UniProt P49841, sequence (P49841 whole entry, looked up): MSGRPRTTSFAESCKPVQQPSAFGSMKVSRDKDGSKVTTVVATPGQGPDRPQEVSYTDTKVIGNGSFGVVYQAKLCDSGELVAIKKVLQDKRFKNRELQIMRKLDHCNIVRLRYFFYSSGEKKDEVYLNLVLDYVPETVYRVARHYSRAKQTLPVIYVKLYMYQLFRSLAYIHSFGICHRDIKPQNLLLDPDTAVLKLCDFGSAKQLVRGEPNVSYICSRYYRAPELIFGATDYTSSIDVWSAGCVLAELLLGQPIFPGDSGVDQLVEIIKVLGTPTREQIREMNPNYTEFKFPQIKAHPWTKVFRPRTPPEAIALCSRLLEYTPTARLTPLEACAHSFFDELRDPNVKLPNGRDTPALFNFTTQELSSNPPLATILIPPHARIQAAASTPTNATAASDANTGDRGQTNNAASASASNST
ARAF, sequence (P10398 whole entry): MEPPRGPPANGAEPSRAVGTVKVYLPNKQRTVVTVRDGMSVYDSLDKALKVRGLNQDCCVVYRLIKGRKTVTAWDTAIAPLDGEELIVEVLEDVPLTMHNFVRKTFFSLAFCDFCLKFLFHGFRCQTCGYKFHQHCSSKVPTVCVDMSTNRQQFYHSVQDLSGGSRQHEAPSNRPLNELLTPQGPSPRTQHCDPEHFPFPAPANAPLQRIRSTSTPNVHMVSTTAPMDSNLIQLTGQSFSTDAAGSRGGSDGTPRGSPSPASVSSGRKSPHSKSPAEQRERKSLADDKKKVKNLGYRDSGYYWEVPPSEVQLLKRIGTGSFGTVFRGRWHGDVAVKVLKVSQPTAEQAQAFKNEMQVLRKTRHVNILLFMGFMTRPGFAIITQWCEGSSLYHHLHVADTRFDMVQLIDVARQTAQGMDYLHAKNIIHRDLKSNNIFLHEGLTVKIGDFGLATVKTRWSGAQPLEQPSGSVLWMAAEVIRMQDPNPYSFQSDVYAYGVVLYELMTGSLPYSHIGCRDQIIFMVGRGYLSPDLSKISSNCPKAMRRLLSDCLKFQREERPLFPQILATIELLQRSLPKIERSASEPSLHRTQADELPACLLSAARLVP

With `CCc1cnn2c(NCc3ccc[n+]([O-])c3)cc(N3CCCC[C@H]3CCO)nc12` [dinaciclib], the pIC50 at ROCK2, on UniProt Q05655, on EPHA3, on PRKACB, at EIF2AK4 and on JAK1 was less than 4.52 in each case. Further, the pIC50 at UniProt Q13163 was less than 4.52; on ARAF, less than 4.52; at PRKD2, less than 4.52; at UniProt P49841, less than 4.52; at IRAK1 it was less than 4.52; on UniProt Q14004, 7.42 ± 0.28.

A word on the pIC50: it is the IC50 on a negative log10 scale, so that one unit is a factor of ten. High values mean a low IC50, low ones a high IC50.
